Test results taken from patent publication US10793543B2, “Selective C-KIT kinase inhibitor” (PRECEDO PHARMACEUTICALS CO., LTD, priority 2016, dated 2020).

Assays:
[1] = tested on: phosphorylation of C-KIT and pathway proteins in GIST-T1 cells; assay: Effects on cell signaling pathways (phosphorylation), GIST-T1; type: cell-based, human; conditions: GIST-T1, 0.1 μM, 2 hours
[2] = tested on: cells expressing wild-type C-KIT kinase; assay: Cell proliferation, C-KIT cells; type: cell-based; conditions: cells expressing wild-type C-KIT kinase, summary of Table 2
From the text: (§1) In the present example, the following cells were used: chronic myelogenous leukemia cells K562 (expressing P210 Bcr-Abl mutant gene), human megakaryocytic leukemia cells MEG-01 (expressing P210 Bcr-Abl mutant gene), human peripheral blood basophilic leukemia cells Ku812 (expressing Bcr-Abl mutant gene) (all above cells purchased from ATCC, USA), human gastrointestinal stromal tumor cell lines GIST-T1 cells (expressing wild-type C-KIT gene) (purchased from Cosmo Bio Co., Ltd., Japan), human gastrointestinal stromal tumor cell lines GIST-882 cells (expressing wild-type C-KIT gene) (presented by the Professor Gray Lab, Dana-Farber Cancer Institute, Harvard University, USA), mouse pro-B cells BaF3 (purchased from ATCC, USA).
(§2) In addition, in the present example, further uses: mouse P210/BaF3 (stably expressing P210 Bcr-Abl mutant gene), mouse Tel-ABL-BaF3 (stably expressing wild-type ABL kinase), mouse Tel-cKit-BaF3 (stably expressing C-KITwild-type kinase), mouse Tel-cKit/V559D-BaF3 (stably expressing C-KIT V559D mutant kinase), mouse Tel-cKit/V559D/V654A-BaF3 (stably expressing C-KIT V559D/V654A mutant kinase), mouse Tel-cKit/N822K-BaF3 (stably expressing C-KIT N822K mutant kinase), mouse Tel-cKit/V654A-BaF3 (stably expressing C-KIT V654A mutant kinase), mouse Tel-cKit/L567P-BaF3 (stably expressing C-KIT L567P mutant kinase), mouse Tel-cKit/T670I-BaF3 (stably expressing C-KIT T670I mutant kinase), mouse Tel-PDGFRα-BaF3 (stably expressing PDGFRα kinase), mouse Tel-PDGFRβ-BaF3 (stably expressing PDGFRβ kinase), mouse Tel-VEGFR2-BaF3 (stably expressing VEGFR2 kinase), mouse Tel-RET-BaF3 (stably expressing RET kinase). The above cell lines were all constructed by our laboratory according to the following method: the kinase region sequences of human P210 Bcr-Abl, ABL, C-KIT, C-KIT V559D, C-KIT V559D/V654A, C-KIT N822K, C-KIT V654A, C-KIT L567P, C-KIT T670I, PDGFRα, PDGFRβ, VEGFR2, RET were amplified respectively by PCR, inserted respectively into MSCV-Puro vectors harboring N-terminal TEL fragment and/or NPM fragment and/or TPR fragment (Clontech), then the vectors were stably transfected into mouse BaF3 cells by retrovirus methods and growth factor IL-3 was removed, eventually obtaining cell lines that are transferred protein (P210 Bcr-Abl, ABL, C-KIT, C-KIT V559D, C-KIT V559D/V654A, C-KIT N822K, C-KIT V654A, C-KIT L567P, C-KIT T670I, PDGFRα, PDGFRβ, VEGFR2, RET)-dependent.
(§3) The cells were incubated for 72 hours, and then the number of viable cells was quantified with a microplate reader by using CCK-8 Cell Viability Assay Kit (purchased from Bestbio Company, Shanghai, China) (CCK-8 can be reduced by dehydrogenase in living cells to a highly water-soluble yellow formazan product, and the amount of formazan produced is proportional to the number of living cells).

[3] = tested on: Tel-cKit/T670I-BaF3 cells (KIT T670I); assay: Cell proliferation, CCK-8, Tel-cKit/T670I-BaF3; type: cell-based; conditions: Mus musculus, 72 hours
From the text: as §2, §3

[4] = tested on: Tel-cKit/V559D/V654A-BaF3 cells (KIT V559D/V654A); assay: Cell proliferation, CCK-8, Tel-cKit/V559D/V654A-BaF3; type: cell-based; conditions: Mus musculus, 72 hours
From the text: as §2, §3

[5] = tested on: Tel-PDGFRβ-BaF3 cells (PDGFRβ); assay: Cell proliferation, CCK-8, Tel-PDGFRβ-BaF3; type: cell-based; conditions: Mus musculus, 72 hours
From the text: as §2, §3

[6] = tested on: phosphorylation of Bcr-Abl kinase and pathway proteins in K562 cells; assay: Effects on cell signaling pathways (phosphorylation), K562; type: cell-based, human; conditions: K562, concentration up to 3 μM, 2 hours
[7] = tested on: cells expressing wild-type ABL and mutant Bcr-Abl kinase; assay: Cell proliferation, text summary for ABL/Bcr-Abl cells; type: cell-based; conditions: summary of Table 2
From the text: as §1, with “USA). […]” for “USA).”
as §3

[8] = tested on: phosphorylation of C-KIT and pathway proteins in GIST-882 cells; assay: Effects on cell signaling pathways (phosphorylation), GIST-882; type: cell-based, human; conditions: GIST-882, 0.1 μM, 2 hours
GIST-882 cells [9] = assay: Apoptosis, PARP and Caspase 3 cleavage by Western Blot, GIST-882; type: cell-based, human; conditions: GIST-882, 0.3 μM, 72 hours
From the text: The effects of different concentrations of drugs on protein cleavage of DNA repairase poly(ADP-ribose) polymerase (PARP) and Caspase (cysteinyl aspartate-specific proteinase) 3 at different periods of time were examined by Western Blot.

GIST-882 cells [10] = assay: Cell cycle distribution by flow cytometry, GIST-882; type: cell-based, human; conditions: GIST-882, treated 48 hours
[11] = tested on: Tel-cKit/N822K-BaF3 cells (KIT N822K); assay: Cell proliferation, CCK-8, Tel-cKit/N822K-BaF3; type: cell-based; conditions: Mus musculus, 72 hours
From the text: as §2, §3

GIST-T1 cells = assay: Cell cycle distribution by flow cytometry, GIST-T1; type: cell-based, human; conditions: GIST-T1, treated 24 hours
[12] = tested on: gastrointestinal stromal tumor cell lines GIST-882; assay: Mouse tumor model of GIST-882 cells; type: in vivo; conditions: GIST-882 model; for tumor inhibition rate: Day 21 after administration
Experimental: 1. 4-6 week-old Bal b/c female mice were purchased from Shanghai SLAC Experimental Animal Co., Ltd., and were raised in a SPF-level laboratory. Drinking water and padding were both subjected to aseptic processing via high-pressure disinfection, and all operations of the mice were conducted under aseptic conditions;
2. About 5×10^6 gastrointestinal stromal tumor cell lines GIST-T1 or GIST-882 (purchased from ATCC) were respectively injected subcutaneously at left side back of all mice at Day 0;
5. Mice were sacrificed on Day 36 (for GIST-882 mouse model) or Day 43 (GIST-T1 mouse model) and subcutaneous tumors were taken out and weighed for comparison;
6. Tumor tissue specimens were prepared into protein lysate samples for further usage;
7. Growth trend of subcutaneous tumors from Day 16 to Day 43 was derived, and tumor volume was calculated as length×width×width/2 mm^3.

BaF3 cells = assay: Cell proliferation, CCK-8, parental BaF3; type: cell-based; conditions: Mus musculus, 72 hours
From the text: as §1, §3

## Cc1ccc(NC(=O)c2cccc(C(F)(F)F)c2)cc1OC1CCN(C(=O)c2ccncc2)CC1 [Compound 4]
[1]
  phosphorylation of C-KIT oncogenic protein: significantly inhibiting
  phosphorylation of proteins such as Stat5, AKT, ErK, S6K, S6, PDGFRα: significant inhibitory effects
[2]
  GI50: < 0.5 µM
[3]
  GI50: 5.31 µM
[4]
  GI50: 1.05 µM
[5]
  GI50: 0.027 µM
[6]
  phosphorylation of Bcr-Abl kinase: no effect
  phosphorylation of proteins such as AKT, ErK: no effect
[7]
  GI50: > 5 µM
[8]
  phosphorylation of C-KIT oncogenic protein: significantly inhibiting
  phosphorylation of proteins such as Stat5, AKT, ErK, S6K, S6, PDGFRα: significant inhibitory effects
GIST-882 cells [9]
  cleavage of PARP and Caspase 3: significant cleavage
GIST-882 cells [10]
  effect on cell cycle: significantly blocked in the GO-G1 phase
[11]
  GI50: 0.94 µM
GIST-T1 cells
  effect on cell cycle: significantly blocked in the GO-G1 phase
[12]; 50 mg/kg oral daily
  tumor inhibition rate: 44%
[12]; 100 mg/kg oral daily
  tumor inhibition rate: 58%
[12]; oral daily dosing
  effect on body weight of mice: no effect on the body weight of mice
BaF3 cells
  GI50: > 10 µM
